Test results taken from patent US11903955B2, “Methods of treating heart failure with reduced ejection fraction” (ASTRAZENECA AB, priority 2019, dated 2024).
Where two headings read alike, the source gives them in different places. Marks after values point to notes of the source that are not given here.

System: patients with chronic heart failure with reduced ejection fraction (LVEF ≤40%)
Conditions: for Cardiovascular death or hospitalization for heart failure, Hazard Ratio (95% CI) / Cardiovascular death, Hazard Ratio (95% CI) / Death from any cause, Hazard Ratio (95% CI) / Hospitalization for heart failure or an urgent heart failure visit, Hazard Ratio (95% CI) / Hospitalization for heart failure, Hazard Ratio (95% CI) / Primary composite outcome, Hazard Ratio (95% CI) / Urgent heart failure visit, Hazard Ratio (95% CI) / Worsening renal function (composite), Hazard Ratio (95% CI) / Total number of (first and recurrent) heart failure hospitalizations and cardiovascular death, rate ratio (95% CI) / HR (95% CI) for primary outcome of CV death or worsening HF: dapagliflozin vs placebo; for Total number of (first and recurrent) heart failure hospitalizations and cardiovascular death, rate ratio (95% CI): LWYY method
From the text: Eligibility requirements included an age of at least 18 years, New York Heart Association (NYHA) class II, III, or IV symptoms, and an ejection fraction of 40% or less. […] Patients with atrial fibrillation or atrial flutter on their baseline electrocardiogram were required to have a NT-proBNP level of at least 900 pg/mL, irrespective of history of heart failure hospitalization. Patients were required to receive standard drug and device therapy for heart failure including an angiotensin-converting enzyme (ACE) inhibitor, angiotensin receptor blocker (ARB), or sacubitril/valsartan; a beta-blocker, unless contraindicated or not tolerated, and a mineralocorticoid receptor (MR) […], if considered appropriate. Doses were required to be individually optimized, in accordance with the targets recommended in guidelines, and stable for at least 4 weeks (excepting diuretics, which could be dosed flexibly). Investigators were advised that patients with type 2 diabetes should continue to take their glucose-lowering therapies, but these could be adjusted as required. Specifically, the protocol stated that the dose of insulin, sulfonylurea treatment, or both, could be reduced to minimize the risk of hypoglycemia, for example in patients with a baseline hemoglobin A1C (HbA1c) level below 7%.
All the patients provided written informed consent and entered a 14-day enrollment period during which the trial inclusion and exclusion criteria were checked and baseline information gathered, including findings from clinical examination and laboratory measurements. […] Investigators used an interactive voice or web response system to obtain treatment assignment. Randomization was stratified based on a diagnosis of type 2 diabetes, defined as either an established diagnosis or a HbA1c level of 6.5% or greater (≥48 mmol/mol) confirmed in a central laboratory at screening. Patients were evaluated at 14 days and 60 days after randomization, with a focus on assessment of heart failure and volume status, adverse events, and checking renal function and potassium. Further study visits took place at 4 months and at 4-month intervals thereafter. The protocol required that study drug be permanently discontinued if pregnancy or diabetic ketoacidosis occurred.
The primary outcome was a composite of a first episode of worsening heart failure or death from cardiovascular causes. An episode of worsening heart failure was either an unplanned hospitalization for heart failure or an urgent heart failure visit requiring intravenous therapy.^14 The first of the secondary outcomes was the composite of heart failure hospitalization or cardiovascular death.
Outcomes were adjudicated by a clinical-end-points committee, blinded to treatment assignment, according to prespecified criteria.
Using a two-sided alpha of 5%, we calculated that 844 primary endpoints would provide a statistical power of 90% for the test of the hypothesis. With an expected annual event rate of 11% in the placebo treatment group, approximately 4500 patients were estimated to provide the required number of primary events, based on an anticipated recruitment period of 18 months and an average follow-up period of approximately 24 months. A closed testing procedure was used, including a prespecified hierarchical testing of the primary and secondary endpoints in the order specified above. Type I error was controlled at a two-sided 0.0499 alpha level for multiplicity across primary and secondary endpoints and taking account of one interim efficacy analysis.
Data from all randomly assigned patients were included in the analyses of the primary and secondary outcomes, according to the intention-to-treat principle. Baseline characteristics were summarized as means and standard deviations, medians and inter-quartile ranges, or percentages.

[1] = all patients (N = 2373), listed as dapagliflozin
[2] = all patients, listed as dapagliflozin

## CCOc1ccc(Cc2cc([C@@H]3O[C@H](CO)[C@@H](O)[C@H](O)[C@H]3O)ccc2Cl)cc1 [Dapagliflozin, dapagliflozin]
No T2DM (N = 1298)
  Cardiovascular death or hospitalization for heart failure, No. (%): 169 (13.0) No. (%)
  Cardiovascular death or hospitalization for heart failure, Subjects with Event/100 Patient-Yr: 9.1 Event/100 Patient-Yr
  Cardiovascular death, No. (%): 106 (8.2) No. (%)
  Cardiovascular death, Subjects with Event/100 Patient-Yr: 5.5 Event/100 Patient-Yr
  Death from any cause, No. (%): 133 (10.3) No. (%)
  Death from any cause, Subjects with Event/100 Patient-Yr: 6.9 Event/100 Patient-Yr
  Hospitalization for heart failure or an urgent heart failure visit, No. (%): 95 (7.3) No. (%)
  Hospitalization for heart failure or an urgent heart failure visit, Subjects with Event/100 Patient-Yr: 5.1 Event/100 Patient-Yr
  Hospitalization for heart failure, No. (%): 93 (7.2) No. (%)
  Hospitalization for heart failure, Subjects with Event/100 Patient-Yr: 5.0 Event/100 Patient-Yr
  Primary composite outcome, No. (%): 171 (13.2) No. (%)
  Primary composite outcome, Subjects with Event/100 Patient-Yr: 9.2 Event/100 Patient-Yr
  Total number of (first and recurrent) heart failure hospitalizations and cardiovascular death: 239
  Urgent heart failure visit, No. (%): 3 (0.2) No. (%)
  Urgent heart failure visit, Subjects with Event/100 Patient-Yr: 0.2 Event/100 Patient-Yr
  Worsening renal function (composite), No. (%): 10 (0.8) No. (%)
  Worsening renal function (composite), Subjects with Event/100 Patient-Yr: 0.5 Event/100 Patient-Yr
T2DM (N = 1075)
  Cardiovascular death or hospitalization for heart failure, No. (%): 213 (19.8) No. (%)
  Cardiovascular death or hospitalization for heart failure, Subjects with Event/100 Patient-Yr: 14.4 Event/100 Patient-Yr
  Cardiovascular death, No. (%): 121 (11.3) No. (%)
  Cardiovascular death, Subjects with Event/100 Patient-Yr: 7.7 Event/100 Patient-Yr
  Death from any cause, No. (%): 143 (13.3) No. (%)
  Death from any cause, Subjects with Event/100 Patient-Yr: 9.1 Event/100 Patient-Yr
  Hospitalization for heart failure or an urgent heart failure visit, No. (%): 142 (13.2) No. (%)
  Hospitalization for heart failure or an urgent heart failure visit, Subjects with Event/100 Patient-Yr: 9.6 Event/100 Patient-Yr
  Hospitalization for heart failure, No. (%): 138 (12.8) No. (%)
  Hospitalization for heart failure, Subjects with Event/100 Patient-Yr: 9.3 Event/100 Patient-Yr
  Primary composite outcome, No. (%): 215 (20.0) No. (%)
  Primary composite outcome, Subjects with Event/100 Patient-Yr: 14.6 Event/100 Patient-Yr
  Total number of (first and recurrent) heart failure hospitalizations and cardiovascular death: 328
  Urgent heart failure visit, No. (%): 7 (0.7) No. (%)
  Urgent heart failure visit, Subjects with Event/100 Patient-Yr: 0.4 Event/100 Patient-Yr
  Worsening renal function (composite), No. (%): 18 (1.7) No. (%)
  Worsening renal function (composite), Subjects with Event/100 Patient-Yr: 1.2 Event/100 Patient-Yr
All patients (N = 2373)
  Cardiovascular death or hospitalization for heart failure, Events/100 Patient-Yr: 11.4 Events/100 Patient-Yr
  Cardiovascular death or hospitalization for heart failure, No. (%): 382 (16.1) No. (%)
  Cardiovascular death, Events/100 Patient-Yr: 6.5 Events/100 Patient-Yr
  Cardiovascular death, No. (%): 227 (9.6) No. (%)
  Death from any cause, Events/100 Patient-Yr: 7.9 Events/100 Patient-Yr
  Death from any cause, No. (%): 276 (11.6) No. (%)
  Hospitalization for heart failure or an urgent heart failure visit, Events/100 Patient-Yr: 7.1 Events/100 Patient-Yr
  Hospitalization for heart failure or an urgent heart failure visit, No. (%): 237 (10.0) No. (%)
  Hospitalization for heart failure, Events/100 Patient-Yr: 6.9 Events/100 Patient-Yr
  Hospitalization for heart failure, No. (%): 231 (9.7) No. (%)
  Primary composite outcome, Events/100 Patient-Yr: 11.6 Events/100 Patient-Yr
  Total number of (first and recurrent) heart failure hospitalizations and cardiovascular death: 567
  Urgent heart failure visit, Events/100 Patient-Yr: 0.3 Events/100 Patient-Yr
  Urgent heart failure visit, No. (%): 10 (0.4) No. (%)
  Worsening renal function (composite), Events/100 Patient-Yr: 0.8 Events/100 Patient-Yr
  Worsening renal function (composite), No. (%): 28 (1.2) No. (%)
[1]
  Cardiovascular death or hospitalization for heart failure, No. (%): 382 No. (%)
  Cardiovascular death, No. (%): 227 No. (%)
  Hospitalization for heart failure, No. (%): 231 (9.7%) No. (%)
All patients, 10 mg once daily (N = 2373), median follow-up 18.2 months
  Primary composite outcome (urgent heart failure visit, hospitalization for heart failure or cardiovascular death), No. (%): 386 (16.3) No. (%)
All patients, dapagliflozin arm
  hospitalizations for heart failure, total first and recurrent: 340
No T2DM
  Cardiovascular death or hospitalization for heart failure, Hazard Ratio (95% CI): 0.73 (0.60-0.89)
  Cardiovascular death, Hazard Ratio (95% CI): 0.85 (0.66-1.10)
  Death from any cause, Hazard Ratio (95% CI): 0.88 (0.70-1.12)
  Hospitalization for heart failure or an urgent heart failure visit, Hazard Ratio (95% CI): 0.62 (0.48-0.80)
  Hospitalization for heart failure, Hazard Ratio (95% CI): 0.63 (0.48-0.81)
  Primary composite outcome, Hazard Ratio (95% CI): 0.73 (0.60 to 0.88)
  Urgent heart failure visit, Hazard Ratio (95% CI): 0.25 (0.07-0.89)
  Worsening renal function (composite), Hazard Ratio (95% CI): 0.67 (0.30-1.49)
  Total number of (first and recurrent) heart failure hospitalizations and cardiovascular death, rate ratio (95% CI): 0.73 (0.59, 0.91)
T2DM
  Cardiovascular death or hospitalization for heart failure, Hazard Ratio (95% CI): 0.75 (0.63-0.90)
  Cardiovascular death, Hazard Ratio (95% CI): 0.79 (0.63-1.01)
  Death from any cause, Hazard Ratio (95% CI): 0.78 (0.63-0.97)
  Hospitalization for heart failure or an urgent heart failure visit, Hazard Ratio (95% CI): 0.77 (0.61-0.95)
  Hospitalization for heart failure, Hazard Ratio (95% CI): 0.76 (0.61-0.95)
  Primary composite outcome, Hazard Ratio (95% CI): 0.75 (0.63 to 0.90)
  Urgent heart failure visit, Hazard Ratio (95% CI): 0.62 (0.24-1.59)
  Worsening renal function (composite), Hazard Ratio (95% CI): 0.73 (0.39-1.34)
  Total number of (first and recurrent) heart failure hospitalizations and cardiovascular death, rate ratio (95% CI): 0.77 (0.63, 0.94)
All patients
  Cardiovascular death or hospitalization for heart failure, Hazard Ratio (95% CI): 0.75 (0.65-0.85)
  Cardiovascular death, Hazard Ratio (95% CI): 0.82 (0.69-0.98)
  Death from any cause, Hazard Ratio (95% CI): 0.83 (0.71-0.97)
  Hospitalization for heart failure or an urgent heart failure visit, Hazard Ratio (95% CI): 0.70 (0.59-0.83)
  Hospitalization for heart failure, Hazard Ratio (95% CI): 0.70 (0.59-0.83)
  Primary composite outcome, Hazard Ratio (95% CI): 0.74 (0.65-0.85)
  Urgent heart failure visit, Hazard Ratio (95% CI): 0.43 (0.20-0.90)
  Worsening renal function (composite), Hazard Ratio (95% CI): 0.71 (0.44-1.16)
  Total number of (first and recurrent) heart failure hospitalizations and cardiovascular death, rate ratio (95% CI): 0.75 (0.65-0.88)‡
[2]
  Total number of (first and recurrent) heart failure hospitalizations and cardiovascular death, rate ratio (95% CI): 0.75
  Cardiovascular death or hospitalization for heart failure, Hazard Ratio (95% CI): 0.75
  Cardiovascular death, Hazard Ratio (95% CI): 0.82
  Death from any cause, Hazard Ratio (95% CI): 0.83
  Hospitalization for heart failure, Hazard Ratio (95% CI): 0.70
  Primary composite outcome, Hazard Ratio (95% CI): 0.74
  Worsening renal function (composite), Hazard Ratio (95% CI): 0.71
Highest tertile of baseline KCCQ-TSS (>87.5)
  HR (95% CI) for primary outcome of CV death or worsening HF: 0.62 (0.46-0.83)
Lowest tertile of baseline KCCQ-TSS (≤65.6)
  HR (95% CI) for primary outcome of CV death or worsening HF: 0.70 (0.57-0.86)
Middle tertile of baseline KCCQ-TSS (65.7-87.5)
  HR (95% CI) for primary outcome of CV death or worsening HF: 0.77 (0.61-0.98)
Over the duration of the trial
  numbers of patients who would need to have been treated to prevent one primary event: 21
Patients without diabetes, highest third of glycated hemoglobin (≥6.0%), dapagliflozin versus placebo
  hazard ratio for the primary outcome: 0.72 (0.52, 1.00)
Patients without diabetes, lowest third of glycated hemoglobin (≤5.6%), dapagliflozin versus placebo
  hazard ratio for the primary outcome: 0.74 (95% CI 0.53, 1.04)
Patients without diabetes, middle third of glycated hemoglobin (>5.6-<6.0%), dapagliflozin versus placebo
  hazard ratio for the primary outcome: 0.71 (0.48, 1.04)
Post hoc subgroup: patients not taking sacubitril-valsartan, dapagliflozin to placebo
  hazard ratio for the primary outcome: 0.74
Post hoc subgroup: patients taking sacubitril-valsartan at baseline, dapagliflozin to placebo
  hazard ratio for the primary outcome: 0.75
